# Target: human Autotaxin protein (Homo sapiens, UniProt Q13822)
# Assay: Evaluation of the inhibitory activity against human Autotaxin protein (18:1 LysoPC substrate, choline assay kit, absorbance at 570 nm)
# Format: biochemical
# Details: compound at 500nM; 2 hours at 37 °C; % inhibition = (1 - absorbance test group / absorbance control group) X 100
# Experimental: Solutions of each compound synthesized (80 uM, 100% dimethyl sulfoxide) were sequentially diluted 5-fold with dimethyl sulfoxide to prepare 6 concentrations. Each concentration of the compound was diluted 2-fold with 1x test buffer (50 mM Tris-Cl (pH 8.0), 5 mM KCl, 1 mM CaCl2, 1 mM MgCl2, 140 mM NaCl, deionized water, 1 mg/mL BSA), and 1 uL (1.25% dimethyl sulfoxide) of this diluted mixture was dispensed into each well of a 96-well clear round-bottom plate. 9 uL of 1x test buffer was added, and 20 uL of 240 nM human autotaxin protein (buffer: 50 mM Tris-HCl, pH 8.0, with 150 mM sodium chloride and 20% glycerol) was added. 10 uL of sonicated 360 uM 18:1 LysoPC (diluted with 1x assay buffer) was added. The reaction was performed for 2 hours in a shaking incubator at 37 °C, and a secondary reaction mixture (choline assay kit, KA1662) (65 uL of 1x assay buffer: 1 uL of choline oxidase: 1 uL of dye probe) was prepared. 60 uL of the secondary reaction mixture was added to the plate where the reaction was performed, and incubated for 30 minutes in a shaker. The absorbance value was measured at a wavelength of 570 nm using a SpectraMax iD3 microplate reader. The percentage inhibition activity value (% inhibition) was calculated by the formula: (1 - absorbance value test group / absorbance value control group) X 100.
row,SMILES,inhibition at 0.5 µM
1,"CC(C)(C)C(=O)OCn1cc(C2CCN(c3nnc(-c4cnc(NC5Cc6cc(F)c(F)cc6C5)nc4)o3)C2)nn1 (stereo not drawn) [Example 2, (4-(1-(5-(2-((5,6-difluoro-2,3-dihydro-1H-inden-2-yl)amino)pyrimidin-5-yl)-1,3,4-oxadiazol-2-yl)pyrrolidin-3-yl)-1H-1,2,3-triazol-1-yl)methyl pivalate]",3%
2,"Fc1cc2c(cc1F)CC(Nc1ncc(-c3nnc(N4CCC(c5c[nH]nn5)C4)o3)cn1)C2 (stereo not drawn) [Example 3, 5-(5-(3-(1H-1,2,3-triazol-4-yl)pyrrolidin-1-yl)-1,3,4-oxadiazol-2-yl)-N-(5,6-difluoro-2,3-dihydro-1H-inden-2-yl)pyrimidin-2-amine]",100%
3,"c1cnc2c(n1)CC(Nc1ncc(-c3nnc(N4CCC(c5c[nH]nn5)C4)o3)cn1)C2 (stereo not drawn) [Example 7, N-(5-(5-(3-(1H-1,2,3-triazol-4-yl)pyrrolidin-1-yl)-1,3,4-oxadiazol-2-yl)pyrimidin-2-yl)-6,7-dihydro-5H-cyclopenta[b]pyrazin-6-amine]",17%
4,"O=C(/C=C/c1cnc(NC2Cc3cc(F)c(F)cc3C2)nc1)N1CCC(c2c[nH]nn2)C1 (stereo not drawn) [Example 9, (E)-1-(3-(1H-1,2,3-triazol-4-yl)pyrrolidin-1-yl)-3-(2-((5,6-difluoro-2,3-dihydro-1H-inden-2-yl)amino)pyrimidin-5-yl)prop-2-en-1-one]",94.2%
5,"COc1ccc2c(c1)CC(Nc1ncc(-c3nnc(N4CCC(c5c[nH]nn5)C4)o3)cn1)C2 (stereo not drawn) [Example 13, 5-(5-(3-(1H-1,2,3-triazol-4-yl)pyrrolidin-1-yl)-1,3,4-oxadiazol-2-yl)-N-(5-methoxy-2,3-dihydro-1H-inden-2-yl)pyrimidin-2-amine]",96.8%
6,"COC(=O)C1CCN(c2nnc(-c3cnc(NC4Cc5cc(F)c(F)cc5C4)nc3)o2)C1 (stereo not drawn) [Example 15, methyl 1-(5-(2-((5,6-difluoro-2,3-dihydro-1H-inden-2-yl)amino)pyrimidin-5-yl)-1,3,4-oxadiazol-2-yl)pyrrolidine-3-carboxylate]",9.5%
7,"Fc1cc2c(cc1F)CC(Nc1ncc(C3CC(N4CCC(c5c[nH]nn5)C4)=NO3)cn1)C2 (stereo not drawn) [Example 17, 5-(3-(3-(1H-1,2,3-triazol-4-yl)pyrrolidin-1-yl)-4,5-dihydroisoxazol-5-yl)-N-(5,6-difluoro-2,3-dihydro-1H-inden-2-yl)pyrimidin-2-amine]",39.5%
8,"Brc1ccc2c(c1)CC(Nc1ncc(-c3nnc(N4CCC(c5c[nH]nn5)C4)o3)cn1)C2 (stereo not drawn) [Example 19, 5-(5-(3-(1H-1,2,3-triazol-4-yl)pyrrolidin-1-yl)-1,3,4-oxadiazol-2-yl)-N-(5-bromo-2,3-dihydro-1H-inden-2-yl)pyrimidin-2-amine]",99.7%
9,"O=C(O)C1CCN(c2nnc(-c3cnc(NC4Cc5cc(F)c(F)cc5C4)nc3)o2)C1 (stereo not drawn) [Example 22, 1-(5-(2-((5,6-difluoro-2,3-dihydro-1H-inden-2-yl)amino)pyrimidin-5-yl)-1,3,4-oxadiazol-2-yl)pyrrolidine-3-carboxylic acid]",3.6%
10,"O=c1[nH]nc(C2CCN(c3nnc(-c4cnc(NC5Cc6cc(F)c(F)cc6C5)nc4)o3)C2)o1 (stereo not drawn) [Example 23, 5-(1-(5-(2-((5,6-difluoro-2,3-dihydro-1H-inden-2-yl)amino)pyrimidin-5-yl)-1,3,4-oxadiazol-2-yl)pyrrolidin-3-yl)-1,3,4-oxadiazol-2(3H)-one]",91.6%
11,"OC1CCN(c2nnc(-c3cnc(NC4Cc5cc(F)c(F)cc5C4)nc3)o2)C1 (stereo not drawn) [Example 26, 1-(5-(2-((5,6-difluoro-2,3-dihydro-1H-inden-2-yl)amino)pyrimidin-5-yl)-1,3,4-oxadiazol-2-yl)pyrrolidin-3-ol]",1%
12,"CS(=O)(=O)OC1CCN(c2nnc(-c3cnc(NC4Cc5cc(F)c(F)cc5C4)nc3)o2)C1 (stereo not drawn) [Example 27, 1-(5-(2-((5,6-difluoro-2,3-dihydro-1H-inden-2-yl)amino)pyrimidin-5-yl)-1,3,4-oxadiazol-2-yl)pyrrolidin-3-yl methanesulfonate]",12.1%

# The next lines start with the values.
row,inhibition at 0.5 µM,SMILES
1,98%,"c1ccc2c(c1)CC(Nc1ncc(-c3nnc(N4CCC(c5c[nH]nn5)C4)o3)cn1)C2 (stereo not drawn) [Example 1, 5-(5-(3-(1H-1,2,3-triazol-4-yl)pyrrolidin-1-yl)-1,3,4-oxadiazol-2-yl)-N-(2,3-dihydro-1H-inden-2-yl)pyrimidin-2-amine]"
2,1%,"CC(C)(C)C(=O)OCn1cc(C2CCN(c3nnc(-c4cnc(NC5Cc6cccnc6C5)nc4)o3)C2)nn1 (stereo not drawn) [Example 4, (4-(1-(5-(2-((6,7-dihydro-5H-cyclopenta[b]pyridin-6-yl)amino)pyrimidin-5-yl)-1,3,4-oxadiazol-2-yl)pyrrolidin-3-yl)-1H-1,2,3-triazol-1-yl)methyl pivalate]"
3,7.6%,"CC(C)(C)C(=O)OCn1cc(C2CCN(c3nnc(-c4cnc(NCc5ccc6c(c5)OCO6)nc4)o3)C2)nn1 (stereo not drawn) [Example 5, (4-(1-(5-(2-((benzo[d][1,3]dioxol-5-ylmethyl)amino)pyrimidin-5-yl)-1,3,4-oxadiazol-2-yl)pyrrolidin-3-yl)-1H-1,2,3-triazol-1-yl)methyl pivalate]"
4,30.4%,"c1cc2c(cc1CNc1ncc(-c3nnc(N4CCC(c5c[nH]nn5)C4)o3)cn1)OCO2 (stereo not drawn) [Example 6, 5-(5-(3-(1H-1,2,3-triazol-4-yl)pyrrolidin-1-yl)-1,3,4-oxadiazol-2-yl)-N-(benzo[d][1,3]dioxol-5-ylmethyl)pyrimidin-2-amine]"
5,49.5%,"c1cnc2c(c1)CC(Nc1ncc(-c3nnc(N4CCC(c5c[nH]nn5)C4)o3)cn1)C2 (stereo not drawn) [Example 8, N-(5-(5-(3-(1H-1,2,3-triazol-4-yl)pyrrolidin-1-yl)-1,3,4-oxadiazol-2-yl)pyrimidin-2-yl)-6,7-dihydro-5H-cyclopenta[b]pyridin-6-amine]"
6,18.6%,"O=C(CCc1cnc(NC2Cc3cc(F)c(F)cc3C2)nc1)N1CCC(c2c[nH]nn2)C1 (stereo not drawn) [Example 10, 1-(3-(1H-1,2,3-triazol-4-yl)pyrrolidin-1-yl)-3-(2-((5,6-difluoro-2,3-dihydro-1H-inden-2-yl)amino)pyrimidin-5-yl)propan-1-one]"
7,41.6%,"Clc1cc(Cl)cc(CCNc2ncc(-c3nnc(N4CCC(c5c[nH]nn5)C4)o3)cn2)c1 (stereo not drawn) [Example 11, 5-(5-(3-(1H-1,2,3-triazol-4-yl)pyrrolidin-1-yl)-1,3,4-oxadiazol-2-yl)-N-(3,5-dichlorophenethyl)pyrimidin-2-amine]"
8,4.1%,"COc1ccc2c(c1)CC(Nc1ncc(-c3nnc(N4CCC(c5cn(COC(=O)C(C)(C)C)nn5)C4)o3)cn1)C2 (stereo not drawn) [Example 12, (4-(1-(5-(2-((5-methoxy-2,3-dihydro-1H-inden-2-yl)amino)pyrimidin-5-yl)-1,3,4-oxadiazol-2-yl)pyrrolidin-3-yl)-1H-1,2,3-triazol-1-yl)methyl pivalate]"
9,23.3%,"Fc1cc2c(cc1F)CC(Nc1cnc(-c3nnc(N4CCC(c5c[nH]nn5)C4)o3)cn1)C2 (stereo not drawn) [Example 14, 5-(5-(3-(1H-1,2,3-triazol-4-yl)pyrrolidin-1-yl)-1,3,4-oxadiazol-2-yl)-N-(5,6-difluoro-2,3-dihydro-1H-inden-2-yl)pyrazin-2-amine]"
10,88.1%,"Cc1nc(NC2Cc3cc(F)c(F)cc3C2)ncc1-c1nnc(N2CCC(c3c[nH]nn3)C2)o1 (stereo not drawn) [Example 16, 5-(5-(3-(1H-1,2,3-triazol-4-yl)pyrrolidin-1-yl)-1,3,4-oxadiazol-2-yl)-N-(5,6-difluoro-2,3-dihydro-1H-inden-2-yl)-4-methylpyrimidin-2-amine]"
11,95.3%,"Fc1cc2c(cc1F)CC(Nc1ncc(-c3cc(N4CCC(c5c[nH]nn5)C4)no3)cn1)C2 (stereo not drawn) [Example 18, 5-(3-(3-(1H-1,2,3-triazol-4-yl)pyrrolidin-1-yl)isoxazol-5-yl)-N-(5,6-difluoro-2,3-dihydro-1H-inden-2-yl)pyrimidin-2-amine]"
12,92.4%,"O=C(/C=C/c1cnc(NC2Cc3ccccc3C2)nc1)N1CCC(c2c[nH]nn2)C1 (stereo not drawn) [Example 20, (E)-1-(3-(1H-1,2,3-triazol-4-yl)pyrrolidin-1-yl)-3-(2-((2,3-dihydro-1H-inden-2-yl)amino)pyrimidin-5-yl)prop-2-en-1-one]"
13,72.5%,"Fc1cc(F)cc(CNc2ncc(-c3nnc(N4CCC(c5c[nH]nn5)C4)o3)cn2)c1 (stereo not drawn) [Example 21, 5-(5-(3-(1H-1,2,3-triazol-4-yl)pyrrolidin-1-yl)-1,3,4-oxadiazol-2-yl)-N-(3,5-difluorobenzyl)pyrimidin-2-amine]"
14,1%,"COC(=O)CC1CCN(c2nnc(-c3cnc(NC4Cc5cc(F)c(F)cc5C4)nc3)o2)C1 (stereo not drawn) [Example 24, methyl 2-(1-(5-(2-((5,6-difluoro-2,3-dihydro-1H-inden-2-yl)amino)pyrimidin-5-yl)-1,3,4-oxadiazol-2-yl)pyrrolidin-3-yl)acetate]"
15,1.8%,"O=C(O)CC1CCN(c2nnc(-c3cnc(NC4Cc5cc(F)c(F)cc5C4)nc3)o2)C1 (stereo not drawn) [Example 25, 2-(1-(5-(2-((5,6-difluoro-2,3-dihydro-1H-inden-2-yl)amino)pyrimidin-5-yl)-1,3,4-oxadiazol-2-yl)pyrrolidin-3-yl)acetic acid]"
